# Measured values published in patent US20060166941A1, “Treatment and/or prevention of non-viral epithelial damage” (Epistem Limited, priority 2003, published 2006).
# “And” between values parts separate entries of the source, which are not always exact repeats. Identical values can stand only once. Counter-ions that a name gives are not always drawn.
# Assays:
# digestive epithelia = assay: Diarrhoea prevention assay, 14 Gy X-ray partial body radiation; assay type: in vivo, mice; settings: for incidence of diarrhoea (perianal soilage): 5 mice
# Description: Diarrhoea Prevention Assay The ability of foscarnet (phosphonoformic acid trisodium salt hexahydrate) to prevent diarrhoea following radiological injury to digestive epithelia was investigated. The model of radiological insult used was treatment with 14 Gy X-ray partial body radiation (head and thorax lead shielded) at a dose rate of 0.7 Gy/minute. Such radiation treatment provides a model of radiotherapy administered to patients undergoing treatment for cancer. Three experimental groups, each of five mice, were established as set out below: Group 1: Received intra-peritoneal injection, containing 50 mg foscarnet/kilogram bodyweight, in sterile water, one hour prior to radiation treatment. Received one further identical injection on each of the next five days following radiation treatment. Group 2: Received intra-peritoneal injection, containing 100 mg foscarnet/kilogram bodyweight, in sterile water, one hour prior to radiation treatment. Received one further identical injection on each of the next five days following radiation treatment. Group 3: Vehicle control. […] Received intra-peritoneal injection, of sterile water, one hour prior to radiation treatment. Received one further identical injection on each of the next five days following radiation treatment. The incidences of both diarrhoea (measured by assessing perianal soilage twice daily) and morbidity among experimental animals were measured over the course of the seven days following radiation treatment.
# [1] = tested on: clonogenic stem cells of the digestive epithelium; assay: In vivo protection of intestinal epithelium clonogenic stem cells, chemotherapy drug damage, independent experiment 2; parameters: species or system mice
# Experimental: In Vivo Protection of Intestinal Epithelium Clonogenic Stem Cells—Chemotherapy Drug Damage—Independent Experiment 2.
# The data presented in Example 4 were expanded in the following study, in which the ability of foscarnet (phosphonoformic acid trisodium salt hexahydrate) to prevent cytotoxic damage to clonogenic stem cells of the digestive epithelium was investigated using the following experiment.
# The model of cytotoxic insult used was treatment with 2 doses of 5-Flurouracil 6 hours apart at 400 mg of 5-Fluorouracil/kilogram bodyweight. Such cytotoxic treatment provides a model of chemotherapy administered to patients undergoing treatment for cancer.
# 8 experimental groups, each of six mice, were established as set out below:
# Group 1: Received intra-peritoneal injection, containing 50 mg foscarnet/kilogram bodyweight, in sterile water, one hour prior to the first cytotoxic treatment. Received one further identical injection on each of the three days following cytotoxic treatment.
# Group 2: Received intra-peritoneal injection, containing 50 mg foscarnet/kilogram bodyweight, in sterile water, one hour prior to the first cytotoxic treatment.
# Group 3: Received intra-peritoneal injection, containing 50 mg foscarnet/kilogram bodyweight, in sterile water on each of the three days following cytotoxic treatment.
# Group 4: Received intra-peritoneal injection, containing 50 mg foscarnet/kilogram bodyweight, in sterile water, 5 minutes prior to the first cytotoxic treatment. Received one further identical injection on each of the three days following cytotoxic treatment.
# Group 5: Vehicle control. Received intra-peritoneal injection, of sterile water, one hour prior to the first cytotoxic treatment. Received one further identical injection on each of the days following cytotoxic treatment.
# Group 6: Vehicle control. Received intra-peritoneal injection, of sterile water, one hour prior to the first cytotoxic treatment.
# Group 7: Vehicle control. Received intra-peritoneal injection, of sterile water, on each of the three days following cytotoxic treatment.
# Group 8: Vehicle control. Received intra-peritoneal injection, of sterile water, 5 minutes prior to the first cytotoxic treatment. Received one further identical injection on each of the three days following cytotoxic treatment.
# (§1) On the fourth day after treatment the animals of each group were killed, and intestinal tissue harvested for histological analysis. Tissue sections were stained with haemotoxylin and eosin, and were analysed for the presence of regenerating intestinal crypts. Regenerating intestinal crypts are derived from one or more surviving clonogenic stem cells, whereas sterilised crypts (containing no surviving stem cells) disappear within two days of irradiation. The number of regenerating crypts per intestinal circumference was counted, and the mean crypt width measured. Scores for each animal were then corrected to account for the probability of preferentially scoring larger crypts according to the following equation: [formula]
# (§2) For each treatment a Protection Factor was calculated using the following equation: corrected crypts/circumference treated corrected crypts/circumference untreated (vehicle)
# [2] = tested on: clonogenic stem cells of the digestive epithelium; assay: In vivo protection of intestinal epithelium clonogenic stem cells, chemotherapy drug (5-Flurouracil) damage; parameters: species or system mice
# Experimental: In Vivo Protection of Intestinal Epithelium Clonogenic Stem Cells—Chemotherapy Drug Damage.
# The ability of foscarnet (phosphonoformic acid trisodium salt hexahydrate) to prevent cytotoxic damage to clonogenic stem cells of the digestive epithelium was illustrated by the following experiment.
# The model of cytotoxic insult used was treatment with 2 doses of 5-Flurouracil 6 hours apart at either 400 mg or 500 mg of 5-Fluorouracil/kilogram bodyweight. Such cytotoxic treatment provides a model of chemotherapy administered to patients undergoing treatment for cancer.
# Five experimental groups, each of five mice, were established as set out below:
# Group 1: Received intra-peritoneal injection, containing 50 mg foscarnet/kilogram bodyweight, in sterile water, one hour prior to the first cytotoxic treatment (400 mg 5-Flurouracil/kilogram bodyweight). Received one further identical injection on each of the three days following cytotoxic treatment. […]
# Group 3: Vehicle control. Received intra-peritoneal injection, of sterile water, one hour prior to both cytotoxic treatments (400 mg 5-Flurouracil/kilogram bodyweight). Received one further identical injection on each of the three days following cytotoxic treatment. […]
# as §1, §2
# [3] = 400 mg/kg 5FU x 2 6 hours apart plus 50 mg foscarnet/kg -5 minutes, D1, D2, D3, group Ave
# [4] = 400 mg/kg 5FU x 2 6 hours apart plus 50 mg foscarnet/kg -5 minutes, D1, D2, D3, individual mice
# [5] = 400 mg/kg 5FU x 2 6 hours apart plus 50 mg foscarnet/kg -1 hr only, group Ave
# [6] = 400 mg/kg 5FU x 2 6 hours apart plus 50 mg foscarnet/kg -1 hr only, individual mice
# [7] = 400 mg/kg 5FU x 2 6 hours apart plus 50 mg foscarnet/kg -1 hr, D1, D2, D3, group Ave
# [8] = 400 mg/kg 5FU x 2 6 hours apart plus 50 mg foscarnet/kg -1 hr, D1, D2, D3, individual mice
# [9] = 400 mg/kg 5FU x 2 6 hours apart plus 50 mg foscarnet/kg D1, D2, D3, group Ave
# [10] = 400 mg/kg 5FU x 2 6 hours apart plus 50 mg foscarnet/kg D1, D2, D3, individual mice
# [11] = group 1: 50 mg/kg foscarnet 1 hr prior to first 5-Flurouracil dose (400 mg/kg x 2) and 3 days after
# [12] = 50 mg foscarnet 1 hr prior to 1st dose of 5-Flurouracil (400 mg/kg x 2 6 hrs apart) and D1, D2, D3, group Average
# [13] = 50 mg foscarnet 1 hr prior to 1st dose of 5-Flurouracil (400 mg/kg x 2 6 hrs apart) and D1, D2, D3, individual mice
# [14] = 50 mg foscarnet 1 hr prior to both doses of 5-Flurouracil (400 mg/kg x 2 6 hrs apart) and D1, D2, D3, group Average
# [15] = 50 mg foscarnet 1 hr prior to both doses of 5-Flurouracil (400 mg/kg x 2 6 hrs apart) and D1, D2, D3, individual mice
# [16] = 50 mg foscarnet 1 hr prior to both doses of 5-Flurouracil (500 mg/kg x 2 6 hrs apart) and D1, D2, D3, group Average
# [17] = 50 mg foscarnet 1 hr prior to both doses of 5-Flurouracil (500 mg/kg x 2 6 hrs apart) and D1, D2, D3, individual mice
structure (smiles),measurement,setting,value
"O=C(O)P(=O)(O)O [foscarnet, phosphonoformic acid trisodium salt hexahydrate]",protection against the deleterious effects of radiation treatment,"digestive epithelia; 50 mg per kilogram bodyweight, 14 Gy partial body",protects completely
same,incidence of diarrhoea (perianal soilage),"digestive epithelia; 50 mg/kg intra-peritoneal 1 hr before 14 Gy and daily for 5 days, Day 3",No
same,incidence of diarrhoea (perianal soilage),"digestive epithelia; 50 mg/kg intra-peritoneal 1 hr before 14 Gy and daily for 5 days, Day 4",No diarrhoea
same,incidence of diarrhoea (perianal soilage),"digestive epithelia; 50 mg/kg intra-peritoneal 1 hr before 14 Gy and daily for 5 days, Day 5",No diarrhoea
same,incidence of diarrhoea (perianal soilage),"digestive epithelia; 50 mg/kg intra-peritoneal 1 hr before 14 Gy and daily for 5 days, Day 6",No diarrhoea
same,incidence of diarrhoea (perianal soilage),"digestive epithelia; 50 mg/kg intra-peritoneal 1 hr before 14 Gy and daily for 5 days, Day 7",No diarrhoea
same,incidence of diarrhoea or associated morbidity compared to vehicle controls,"digestive epithelia; 100 mg per kilogram bodyweight, 14 Gy partial body",reduced incidence of diarrhoea or associated morbidity
same,incidence of diarrhoea (perianal soilage),"digestive epithelia; 100 mg/kg intra-peritoneal 1 hr before 14 Gy and daily for 5 days, Day 3",No
same,incidence of diarrhoea (perianal soilage),"digestive epithelia; 100 mg/kg intra-peritoneal 1 hr before 14 Gy and daily for 5 days, Day 4",No diarrhoea
same,incidence of diarrhoea (perianal soilage),"digestive epithelia; 100 mg/kg intra-peritoneal 1 hr before 14 Gy and daily for 5 days, Day 5",No diarrhoea
same,incidence of diarrhoea (perianal soilage),"digestive epithelia; 100 mg/kg intra-peritoneal 1 hr before 14 Gy and daily for 5 days, Day 6",2 mice had
same,incidence of diarrhoea (perianal soilage),"digestive epithelia; 100 mg/kg intra-peritoneal 1 hr before 14 Gy and daily for 5 days, Day 7",1 mouse had diarrhoea
same,Protection Factor,"[1]; 50 mg foscarnet/kg 5 minutes prior to 1st dose of 5-Flurouracil (400 mg/kg x 2 6 hrs apart) and D1, D2 & D3",1.11
same,Protection Factor,[1]; 50 mg foscarnet/kg 1 hr prior to 1st dose of 5-Flurouracil (400 mg/kg x 2 6 hrs apart),1.12
same,Protection Factor,"[1]; 50 mg foscarnet/kg 1 hr prior to 1st dose of 5-Flurouracil (400 mg/kg x 2 6 hrs apart) and D1, D2 & D3",1.62
same,Protection Factor,"[1]; 50 mg foscarnet/kg D1, D2, D3 following 5-Flurouracil (400 mg/kg x 2 6 hrs apart)",1.13
same,corrected crypts/circumference,[1]; [3],25.12
same,no. crypts/circumference,[1]; [3],26.97
same,corrected crypts/circumference,[1]; [4],13.01 and 39.74 and 38.64 and 15.78 and 24.39 and 19.14
same,no. crypts/circumference,[1]; [4],13.20 and 46.50 and 40.10 and 16.30 and 24.30 and 21.40
same,corrected crypts/circumference,[1]; [5],22.70
same,no. crypts/circumference,[1]; [5],24.62
same,corrected crypts/circumference,[1]; [6],35.09 and 16.52 and 22.90 and 30.41 and 11.28 and 20.01
same,no. crypts/circumference,[1]; [6],42.50 and 16.20 and 24.70 and 32.80 and 11.70 and 19.80
same,corrected crypts/circumference,[1]; [7],29.76
same,no. crypts/circumference,[1]; [7],31.28
same,corrected crypts/circumference,[1]; [8],42.10 and 17.28 and 33.67 and 29.92 and 31.88 and 23.71
same,no. crypts/circumference,[1]; [8],44.90 and 16.00 and 35.70 and 32.50 and 34.30 and 24.30
same,corrected crypts/circumference,[1]; [9],19.78
same,no. crypts/circumference,[1]; [9],19.58
same,corrected crypts/circumference,[1]; [10],13.74 and 9.34 and 35.87 and 23.12 and 21.45 and 15.14
same,no. crypts/circumference,[1]; [10],14.10 and 8.50 and 35.50 and 24.10 and 19.20 and 16.10
same,numbers of intestinal crypts after exposure to 5-Flurouracil,"[1]; Groups 1, 2, 3 and 4 (50 mg foscarnet/kg regimens)",increased numbers of intestinal crypts
same,more crypts compared to mice treated with vehicle alone,[1]; [11],~50%
same,more small intestinal clonogenic stem cells survived,[1]; [11],at least 50%
same,Protection Factor,"[2]; 50 mg foscarnet 1 hr prior to 1st dose of 5-Flurouracil (400 mg/kg x 2 6 hrs apart) and D1, D2 & D3",1.87
same,corrected crypts/circumference,[2]; [12],20.0
same,no. crypts/circumference,[2]; [12],21.5
same,corrected crypts/circumference,[2]; [13],11.0 and 23.2 and 17.2 and 16.5 and 32.1
same,no. crypts/circumference,[2]; [13],12.4 and 24.1 and 17.9 (2×) and 35.2
same,Protection Factor,"[2]; 50 mg foscarnet 1 hr prior to both doses of 5-Flurouracil (400 mg/kg x 2 6 hrs apart) and D1, D2 & D3",1.59
same,corrected crypts/circumference,[2]; [14],17.0
same,no. crypts/circumference,[2]; [14],18.1
same,corrected crypts/circumference,[2]; [15],14.3 and 16.3 and 20.6 and 11.4 and 22.5
same,no. crypts/circumference,[2]; [15],15.9 and 16.8 and 22.8 and 11.4 and 23.4
same,Protection Factor,"[2]; 50 mg foscarnet 1 hr prior to both doses of 5-Flurouracil (500 mg/kg x 2 6 hrs apart) and D1, D2 & D3",1.46
same,corrected crypts/circumference,[2]; [16],10.2
same,no. crypts/circumference,[2]; [16],10.5
same,corrected crypts/circumference,[2]; [17],8.5 and 13.0 and 16.3 and 5.6 and 7.6
same,no. crypts/circumference,[2]; [17],8.5 and 13.0 and 17.9 and 6.0 and 7.3
same,numbers of intestinal crypts after exposure to 5-Flurouracil,"[2]; Groups 1, 2 and 4 (50 mg foscarnet/kg regimens)",increased numbers of intestinal crypts
same,more crypts compared to mice treated with vehicle alone,[2]; [11],~50%
same,more small intestinal clonogenic stem cells survived,[2]; [11],at least 50%
